Results taken from patent publication US10633419B2, “Immunomodulators” (BRISTOL-MYERS SQUIBB COMPANY, priority 2014, dated 2020).
Starred links: 1 amine or outer side, 2 acyl side, 3 side chain; linkers in the order of their positions; H or OH if unused. Positions of bridges follow the written chain, without caps; N, C: chain ends. Non-standard residues stand in square brackets, D forms with d. Residues, ends and D or L forms follow the SMILES beside them. Groups on a side chain read outwards from the residue. *: point of attachment. Succinyl(O-RRR-αToc) = Cc1c(C)c2c(c(C)c1OC(=O)CCC(=O)*)CC[C@@](C)(CCC[C@H](C)CCC[C@H](C)CCCC(C)C)O2; X7 = CCCCCCCCCCCCCCCCNC(=O)[C@H](CC(=O)O)NC(=O)CCC(=O)NCCCOCCOCCOCCCN*; CH3O(CH2CH2O)11CH2CH2CO = COCCOCCOCCOCCOCCOCCOCCOCCOCCOCCOCCOCCC(=O)*; X13 = O=C(O)CCCCCCCCCCCCCCC(=O)N[C@@H](CCC(=O)NCCCOCCOCCOCCCN*)C(=O)O; Ala(1-CH2COOH-inden-3-yl) = N[C@@H](CC1=CC(CC(=O)O)c2ccccc21)C(=O)O; Trp(1-CH2COOH) = N[C@@H](Cc1cn(CC(=O)O)c2ccccc12)C(=O)O; X21 = O=C([C@H](CC1=CC(CCCCCN[*:3])N=N1)N[*:1])[*:2]; Phe(3,4,5-F3) = N[C@@H](Cc1cc(F)c(F)c(F)c1)C(=O)O; C18 diacid = O=C(O)CCCCCCCCCCCCCCCCC(=O)*; NH(CH2)16COOH = O=C(O)CCCCCCCCCCCCCCCCN*; Phe(4-F) = N[C@@H](Cc1ccc(F)cc1)C(=O)O; γGlu = O=C(O)[C@H](CCC(=O)[*:2])N[*:1]; d(cisHyp) = O=C(O)[C@H]1C[C@@H](O)CN1; PEG6 = NCCOCCOCCOCCOCCOCCOCCC(=O)O; Hyp = O=C(O)[C@@H]1C[C@@H](O)CN1; NMeF = CN[C@@H](Cc1ccccc1)C(=O)O; Myristoyl = CCCCCCCCCCCCCC(=O)*; NMeNle = CCCC[C@H](NC)C(=O)O; Pip = O=C(O)[C@@H]1CCCCN1; dPip = O=C(O)[C@H]1CCCCN1; NMeA = CN[C@@H](C)C(=O)O; Pra = C#CC[C@H](N)C(=O)O; Aun = NCCCCCCCCCCC(=O)O; Dab = NCC[C@H](N)C(=O)O; Dap = NC[C@H](N)C(=O)O

These compounds were tested against T1, PD-L1 (Homo sapiens, UniProt Q9NZQ7) (assay: PD-1/PD-L1 Homogenous Time-Resolved Fluorescence (HTRF) binding assay (PD-1-Ig/PD-L1-His)). Details: not given.
T1 construct: hPDL1(19-239)-TVMV-His; made in house; host or cells: HEK293T
T1 sequence (Q9NZQ7 with tags, fused parts or gaps): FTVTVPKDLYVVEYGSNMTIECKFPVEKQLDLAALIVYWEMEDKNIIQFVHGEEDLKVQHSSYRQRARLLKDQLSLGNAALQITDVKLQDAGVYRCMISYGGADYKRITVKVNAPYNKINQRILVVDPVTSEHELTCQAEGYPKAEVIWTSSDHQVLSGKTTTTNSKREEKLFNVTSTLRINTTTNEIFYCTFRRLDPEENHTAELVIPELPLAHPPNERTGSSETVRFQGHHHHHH
How it was run: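 Inhibitors pre-incubated 15 min with PD-L1-His (10 nM final), then PD-1-Ig (20 nM final) added for 15 min in dPBS/0.1% BSA/0.05% Tween-20. Eu-cryptate anti-Ig (1 nM) and APC anti-His (20 nM) added, 30 min equilibration, 665/620 nm HTRF ratio read.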

SMILES	IC50
CCCC[C@H]1C(=O)N(C)[C@@H](CCCC)C(=O)N[C@@H](CCC(=O)O)C(=O)N[C@H](C(=O)NCC(=O)N[C@@H](CC2=CC(CCCCCNC(=O)CCC(=O)Oc3c(C)c(C)c4c(c3C)CC[C@@](C)(CCC[C@H](C)CCC[C@H](C)CCCC(C)C)O4)N=N2)C(=O)NCC(N)=O)CSCC(=O)N[C@@H](Cc2ccc(O)cc2)C(=O)N(C)[C@@H](C)C(=O)N[C@@H](CC(=O)O)C(=O)N2CCC[C@H]2C(=O)N[C@@H](Cc2c[nH]cn2)C(=O)N[C@@H](CCCCN)C(=O)N2C[C@H](O)C[C@H]2C(=O)N[C@@H](Cc2c[nH]c3ccccc23)C(=O)N[C@@H](CCCCN)C(=O)N[C@@H](Cc2c[nH]c3ccccc23)C(=O)N1C (stereo partly drawn) [Example 14051] ({CH2CO}-Y[NMeA]DPHK[Hyp]WKW[NMeNle][NMeNle]ECG[X21](Succinyl(O-RRR-αToc))G-NH2; thioether N-14)	100 to 1600 nM

Same assay, conditions: inhibition of PD-1-Ig binding to PD-L1-TVMV-His; value given as number; read-out: HTRF IC50

SMILES	IC50
CCCC[C@H]1C(=O)N(C)[C@@H](CCCC)C(=O)N[C@@H](CC(C)C)C(=O)N[C@H](C(=O)NCC(=O)N[C@@H](CCNC(=O)CC[C@H](NC(=O)CCCCCCCCCCCCCCCCC(=O)O)C(=O)O)C(=O)O)CSCC(=O)N[C@@H](Cc2ccc(F)cc2)C(=O)N2CCCC[C@H]2C(=O)N[C@@H](CC(=O)O)C(=O)N2CCC[C@H]2C(=O)N[C@@H](CN)C(=O)N[C@@H](CC(C)C)C(=O)N2C[C@H](O)C[C@H]2C(=O)N[C@@H](Cc2c[nH]c3ccccc23)C(=O)N[C@@H](CCN)C(=O)N[C@@H](Cc2cn(CC(=O)O)c3ccccc23)C(=O)N1C [Example 13150] ({CH2CO}-[Phe(4-F)][Pip]DP[Dap]L[Hyp]W[Dab][Trp(1-CH2COOH)][NMeNle][NMeNle]LCG[Dab]([γGlu-C18 diacid])-OH; thioether N-14)	20.9 nM

Same assay, conditions: inhibition of PD-1-Ig binding to PD-L1-TVMV-His; value given as range class; read-out: HTRF IC50

SMILES	IC50
CCCC[C@H]1C(=O)N(C)[C@@H](CCCC)C(=O)N[C@@H](CC(C)C)C(=O)N[C@H](C(=O)NCC(=O)NCCCCCCCCCCC(=O)O)CSCC(=O)N[C@@H](Cc2ccc(O)cc2)C(=O)N(C)[C@@H](C)C(=O)N[C@@H](CC(N)=O)C(=O)N2CCC[C@H]2C(=O)N[C@@H](Cc2cnc[nH]2)C(=O)N[C@@H](CCC(=O)O)C(=O)N2C[C@H](O)C[C@H]2C(=O)N[C@@H](Cc2c[nH]c3ccccc23)C(=O)N[C@@H](CCN)C(=O)N[C@@H](CC2=CC(CC(=O)O)c3ccccc32)C(=O)N1C (stereo partly drawn) [Example 11077] ({CH2CO}-Y[NMeA]NPHE[Hyp]W[Dab][Ala(1-CH2COOH-inden-3-yl)][NMeNle][NMeNle]LCG[Aun]-OH; thioether N-14)	0.3 to 9.9 nM
CCCCCCCCCCCCCCCCNC(=O)[C@H](CC(=O)O)NC(=O)CCC(=O)NCCCOCCOCCOCCCNC(=O)CNC(=O)[C@@H]1CSCC(=O)N[C@@H](Cc2ccc(O)cc2)C(=O)N(C)[C@@H](C)C(=O)N[C@@H](CC(=O)O)C(=O)N2CCC[C@H]2C(=O)N[C@@H](Cc2cnc[nH]2)C(=O)N[C@@H](CC(C)C)C(=O)N2C[C@H](O)C[C@H]2C(=O)N[C@@H](Cc2c[nH]c3ccccc23)C(=O)N[C@@H](CO)C(=O)N[C@@H](Cc2c[nH]c3ccccc23)C(=O)N(C)[C@@H](CCCC)C(=O)N(C)[C@@H](CCCC)C(=O)N[C@@H](CCCNC(=N)N)C(=O)N1 [Example 11128] ({CH2CO}-Y[NMeA]DPHL[Hyp]WSW[NMeNle][NMeNle]RCG-X7; thioether N-14)	10 to 99 nM
C#CC[C@H](NC(=O)CNC(=O)[C@@H]1CSCC(=O)N[C@@H](Cc2ccc(O)cc2)C(=O)N2CCCC[C@H]2C(=O)N[C@@H](CC(N)=O)C(=O)N2CCC[C@H]2C(=O)N[C@@H](CN)C(=O)N[C@@H](CC(C)C)C(=O)N2C[C@H](O)C[C@H]2C(=O)N[C@@H](Cc2c[nH]c3ccccc23)C(=O)N[C@@H](CCN)C(=O)N[C@@H](Cc2cn(CC(=O)O)c3ccccc23)C(=O)N(C)[C@@H](CCCC)C(=O)N(C)[C@@H](CCCC)C(=O)N[C@@H](CC(C)C)C(=O)N1)C(=O)O [INT130AI] ({CH2CO}-Y[Pip]NP[Dap]L[Hyp]W[Dab][Trp(1-CH2COOH)][NMeNle][NMeNle]LCG[Pra]-OH; thioether N-14)	0.3 to 9.9 nM
CCCC[C@H]1C(=O)N(C)[C@@H](CCCC)C(=O)N[C@@H](CC(C)C)C(=O)N[C@H](C(=O)NCC(=O)N[C@@H](CC(=O)O)C(=O)N[C@@H](CCC(=O)NCCCOCCOCCOCCCNC(=O)CC[C@H](NC(=O)CCCCCCCCCCCCCCC(=O)O)C(=O)O)C(=O)O)CSCC(=O)N[C@@H](Cc2ccc(O)cc2)C(=O)N(C)[C@@H](C)C(=O)N[C@@H](CC(N)=O)C(=O)N2CCC[C@H]2C(=O)N[C@@H](CN)C(=O)N[C@@H](CC(C)C)C(=O)N2C[C@H](O)C[C@H]2C(=O)N[C@@H](Cc2c[nH]c3ccccc23)C(=O)N[C@@H](CCN)C(=O)N[C@@H](Cc2cn(CC(=O)O)c3ccccc23)C(=O)N1C [Example 11170] ({CH2CO}-Y[NMeA]NP[Dap]L[Hyp]W[Dab][Trp(1-CH2COOH)][NMeNle][NMeNle]LCGDE(X13)-OH; thioether N-14)	0.3 to 9.9 nM
CCCC[C@H]1C(=O)N2C[C@H](O)C[C@@H]2C(=O)N[C@@H](CC(=O)O)C(=O)N[C@@H](C(C)C)C(=O)N(C)[C@@H](Cc2ccccc2)C(=O)N[C@@H](Cc2ccc(O)cc2)C(=O)N2CCCC[C@@H]2C(=O)N[C@@H](Cc2c[nH]c3ccccc23)C(=O)N[C@@H](Cc2ccc(O)cc2)C(=O)N[C@@H](CC(C)C)C(=O)N[C@H](C(=O)NCC(=O)NCC(=O)NCC(=O)N[C@@H](CCCCNC(=O)CCOCCOCCOCCOCCOCCOCCOCCOCCOCCOCCOCCOC)C(N)=O)CSCC(=O)N[C@@H](Cc2cc(F)c(F)c(F)c2)C(=O)N(C)[C@@H](Cc2ccccc2)C(=O)N1C [Example 3624] ({CH2CO}-[Phe(3,4,5-F3)][NMeF][NMeNle][d(cisHyp)]DV[NMeF]Y[dPip]WYLCGGGK(CH3O(CH2CH2O)11CH2CH2CO)-NH2; thioether N-13)	0.3 to 9.9 nM
CCCC[C@H]1C(=O)N(C)[C@@H](CCCC)C(=O)N[C@@H](CC(C)C)C(=O)N[C@H](C(=O)NCC(=O)N[C@H](CC(=O)O)C(=O)NCCCCCCCCCCCCCCCCC(=O)O)CSCC(=O)N[C@@H](Cc2ccc(O)cc2)C(=O)N(C)[C@@H](C)C(=O)N[C@@H](CC(N)=O)C(=O)N2CCC[C@H]2C(=O)N[C@@H](CN)C(=O)N[C@@H](CC(C)C)C(=O)N2C[C@H](O)C[C@H]2C(=O)N[C@@H](Cc2c[nH]c3ccccc23)C(=O)N[C@@H](CCN)C(=O)N[C@@H](Cc2cn(CC(=O)O)c3ccccc23)C(=O)N1C [Example 11190] ({CH2CO}-Y[NMeA]NP[Dap]L[Hyp]W[Dab][Trp(1-CH2COOH)][NMeNle][NMeNle]LCG[dD]-{NH(CH2)16COOH}; thioether N-14)	10 to 99 nM
CCCC[C@H]1C(=O)N(C)[C@@H](CCCC)C(=O)N[C@@H](CC(C)C)C(=O)N[C@H](C(=O)NCCOCCOCCOCCOCCOCCOCCC(=O)NCCCCCCCCCCC(=O)O)CSCC(=O)N[C@@H](Cc2ccc(O)cc2)C(=O)N(C)[C@@H](C)C(=O)N[C@@H](CC(N)=O)C(=O)N2CCC[C@H]2C(=O)N[C@@H](CN)C(=O)N[C@@H](CCC(N)=O)C(=O)N2C[C@H](O)C[C@@H]2C(=O)N[C@@H](Cc2c[nH]c3ccccc23)C(=O)N[C@@H](CCN)C(=O)N[C@@H](Cc2cn(CC(=O)O)c3ccccc23)C(=O)N1C [Example 11061] ({CH2CO}-Y[NMeA]NP[Dap]Q[d(cisHyp)]W[Dab][Trp(1-CH2COOH)][NMeNle][NMeNle]LC[PEG6][Aun]-OH; thioether N-14)	100 to 1600 nM
CCCC[C@H]1C(=O)N2C[C@H](O)C[C@@H]2C(=O)N[C@@H](CC(=O)O)C(=O)N[C@@H](C(C)C)C(=O)N(C)[C@@H](Cc2ccccc2)C(=O)N[C@@H](CC(=O)O)C(=O)N2CCC[C@@H]2C(=O)N[C@@H](Cc2c[nH]c3ccccc23)C(=O)N[C@@H](Cc2ccc(O)cc2)C(=O)N[C@@H](CC(C)C)C(=O)N[C@H](C(=O)NCC(=O)N[C@@H](Cc2cn(CC[C@H](NC(=O)CCCCCCCCCCCCCCC(=O)O)C(=O)O)nn2)C(N)=O)CSCC(=O)N[C@@H](Cc2cc(F)c(F)c(F)c2)C(=O)N(C)[C@@H](Cc2ccccc2)C(=O)N1C [Example 14074]	10 to 99 nM
CCCCCCCCCCCCCC(=O)NCCCC[C@H](NC(=O)[C@H](CC(=O)O)NC(=O)[C@H](CC(=O)O)NC(=O)CNC(=O)[C@@H]1CSCC(=O)N[C@@H](Cc2ccc(O)cc2)C(=O)N(C)[C@@H](C)C(=O)N[C@@H](CC(=O)O)C(=O)N2CCC[C@H]2C(=O)N[C@@H](Cc2cnc[nH]2)C(=O)N[C@@H](CC(C)C)C(=O)N2C[C@H](O)C[C@H]2C(=O)N[C@@H](Cc2c[nH]c3ccccc23)C(=O)N[C@@H](CO)C(=O)N[C@@H](Cc2c[nH]c3ccccc23)C(=O)N(C)[C@@H](CCCC)C(=O)N(C)[C@@H](CCCC)C(=O)N[C@@H](CCCNC(=N)N)C(=O)N1)C(N)=O [Example 11014] ({CH2CO}-Y[NMeA]DPHL[Hyp]WSW[NMeNle][NMeNle]RCGDDK(Myristoyl)-NH2; thioether N-14)	100 to 1600 nM
C#CC[C@H](NC(=O)CNC(=O)[C@@H]1CSCC(=O)N[C@@H](Cc2ccc(O)cc2)C(=O)N(C)[C@@H](C)C(=O)N[C@@H](CC(=O)O)C(=O)N2CCC[C@H]2C(=O)N[C@@H](Cc2c[nH]cn2)C(=O)N[C@@H](CCCCN)C(=O)N2C[C@H](O)C[C@H]2C(=O)N[C@@H](Cc2c[nH]c3ccccc23)C(=O)N[C@@H](CCCCN)C(=O)N[C@@H](Cc2cn(CC(=O)O)c3ccccc23)C(=O)N(C)[C@@H](CCCC)C(=O)N(C)[C@@H](CCCC)C(=O)N[C@@H](CCC(=O)O)C(=O)N1)C(=O)NCC(N)=O [INT 1400D] ({CH2CO}-Y[NMeA]DPHK[Hyp]WK[Trp(1-CH2COOH)][NMeNle][NMeNle]ECG[Pra]G-NH2; thioether N-14)	0.3 to 9.9 nM
